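1) Cells in 96-well plates. 2) Compound, 48 h, 5 concentrations. 3) Linear interpolation between surrounding doses. 4) Unreached endpoint = highest concentration. GI50: concentration for 50% inhibition of growth.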 Calls of active or inactive are those of the source. Cut-off read from the data, not from the text of the source: active = GI50 up to about 1.1 µM and inactive = higher.
Columns and labels:
Experiment in all cases: growth of human tumour cells (NCI), 48 h
[1] = system: CCRF-CEM
[2] = system: OVCAR-3
[3] = system: NCI/ADR-RES
[4] = system: LOX IMVI
[5] = system: MDA-N
[6] = system: SN12C
[7] = system: SF-295
[8] = system: U-251
[9] = system: MDA-MB-231
[10] = system: TK-10
[11] = system: RPMI-8226
[12] = system: MCF7
[13] = system: CAKI-1
[14] = system: SK-MEL-2
[15] = system: SK-OV-3
[16] = system: SW-620
[17] = system: A549
[18] = system: KM12
[19] = system: SF-539
[20] = system: RXF 393
[21] = system: Hs-578T
[22] = system: SR
[23] = system: HT-29
[24] = system: UO-31
[25] = system: HCT-15
[26] = system: UACC-257
[27] = system: HCT-116
[28] = system: NCI-H226
[29] = system: SF-268
[30] = system: M14
[31] = system: 786-0
[32] = system: SK-MEL-28
[33] = system: MDA-MB-435
[34] = system: HL-60
[35] = system: NCI-H522
[36] = system: SNB-75
[37] = system: HOP-92
[38] = system: COLO 205
[39] = system: OVCAR-5
[40] = system: DU-145
[41] = system: MOLT-4
[42] = system: ACHN
[43] = system: SNB-19
[44] = system: PC-3
[45] = system: SK-MEL-5
[46] = system: A498
[47] = system: NCI-H460
[48] = system: OVCAR-8
[49] = system: K562
[50] = system: T47D
[51] = system: EKVX
[52] = system: HOP-62
[53] = system: UACC-62
[54] = system: HCC 2998
[55] = system: NCI-H23
[56] = system: Malme-3M
[57] = system: IGROV-1
[58] = system: OVCAR-4
[59] = system: BT-549

Clc1ccc(NCNC2Nc3ccccc3N2)cc1Cl
GI50 [1]: 25 µM (inactive)
GI50 [2]: 29.3 µM (inactive)
GI50 [3]: 83.4 µM (inactive)
GI50 [4]: 4.63 µM (inactive)
GI50 [5]: 30.8 µM (inactive)
GI50 [6]: 22.6 µM (inactive)
GI50 [7]: 20.4 µM (inactive)
GI50 [8]: 52.5 µM (inactive)
GI50 [9]: 16.7 µM (inactive)
GI50 [10]: 55.6 µM (inactive)
GI50 [11]: 26.4 µM (inactive)
GI50 [12]: 0.247 µM (active)
GI50 [13]: 34.6 µM (inactive)
GI50 [14]: 32 µM (inactive)
GI50 [15]: 48.8 µM (inactive)
GI50 [16]: 27.6 µM (inactive)
GI50 [17]: 56.9 µM (inactive)
GI50 [18]: 11.9 µM (inactive)
GI50 [19]: 48.5 µM (inactive)
GI50 [20]: 30.8 µM (inactive)
GI50 [21]: > 100 µM (inactive)
GI50 [22]: 37.1 µM (inactive)
GI50 [23]: 13.7 µM (inactive)
GI50 [24]: 27.4 µM (inactive)
GI50 [25]: 31.1 µM
GI50 [26]: > 100 µM (inactive)
GI50 [27]: 36.7 µM (inactive)
GI50 [28]: 27.5 µM (inactive)
GI50 [29]: 28.4 µM (inactive)
GI50 [30]: 83.4 µM (inactive)
GI50 [31]: 66.8 µM (inactive)
GI50 [32]: 70.5 µM (inactive)
GI50 [33]: 20.6 µM (inactive)
GI50 [34]: 41.3 µM (inactive)
GI50 [35]: 22.4 µM (inactive)
GI50 [36]: 19.8 µM (inactive)
GI50 [37]: 48.4 µM (inactive)
GI50 [38]: 35.8 µM (inactive)
GI50 [39]: > 100 µM (inactive)
GI50 [40]: > 100 µM (inactive)
GI50 [41]: 39.2 µM (inactive)
GI50 [42]: 26.6 µM (inactive)
GI50 [43]: > 100 µM (inactive)
GI50 [44]: 50.1 µM (inactive)
GI50 [45]: 17.1 µM (inactive)
GI50 [46]: > 100 µM (inactive)
GI50 [47]: 24.2 µM (inactive)
GI50 [48]: 13.1 µM (inactive)
GI50 [49]: 12.4 µM (inactive)
GI50 [50]: 12.6 µM (inactive)
GI50 [51]: 63.7 µM (inactive)
GI50 [52]: 72.1 µM (inactive)
GI50 [53]: 2.26 µM (inactive)
GI50 [54]: 73.6 µM (inactive)
GI50 [55]: > 100 µM (inactive)
GI50 [56]: 92.9 µM (inactive)

Cc1cn2c(/C=N/NC(=N)N)c(-c3cc([N+](=O)[O-])c(Cl)cc3Cl)nc2s1
GI50 [3]: > 100 µM (inactive)
GI50 [57]: 1.8 µM (inactive)
GI50 [6]: 2.24 µM (inactive)
GI50 [7]: 2.08 µM (inactive)
GI50 [58]: 1.91 µM (inactive)
GI50 [9]: 2.4 µM (inactive)
GI50 [10]: 2.3 µM (inactive)
GI50 [12]: 0.49 µM (active)
GI50 [14]: 2.35 µM (inactive)
GI50 [17]: 4.06 µM (inactive)
GI50 [18]: 0.455 µM (active)
GI50 [19]: 2.52 µM (inactive)
GI50 [23]: 1.13 µM (inactive)
GI50 [24]: 1.83 µM (inactive)
GI50 [26]: 2.24 µM (inactive)
GI50 [32]: 2.22 µM (inactive)
GI50 [34]: 1.61 µM (inactive)
GI50 [35]: 1.47 µM (inactive)
GI50 [37]: 3.32 µM (inactive)
GI50 [38]: 0.55 µM (active)
GI50 [43]: 1.87 µM (inactive)
GI50 [44]: 2.34 µM (inactive)
GI50 [45]: 2.77 µM (inactive)
GI50 [47]: 2.29 µM (inactive)
GI50 [48]: 2.63 µM (inactive)
GI50 [53]: 1.98 µM (inactive)
GI50 [59]: 2.51 µM (inactive)

COc1cc(C2C(Cl)C(=O)N2NC(=O)c2ccccc2O)cc(OC)c1OC (stereo not drawn)
GI50 [1]: 1.65 µM (inactive)
GI50 [2]: 4.72 µM (inactive)
GI50 [4]: 3.7 µM (inactive)
GI50 [57]: 0.188 µM (active)
GI50 [7]: 1.8 µM (inactive)
GI50 [8]: 3.54 µM (inactive)
GI50 [58]: 3.99 µM (inactive)
GI50 [10]: 8.51 µM (inactive)
GI50 [12]: 2.9 µM (inactive)
GI50 [16]: 2.63 µM (inactive)
GI50 [17]: 4.27 µM (inactive)
GI50 [18]: 5.58 µM (inactive)
GI50 [19]: 3.5 µM (inactive)
GI50 [20]: > 10 µM (inactive)
GI50 [21]: 8.38 µM (inactive)
GI50 [22]: 2.98 µM (inactive)
GI50 [23]: 2.75 µM (inactive)
GI50 [24]: 7.76 µM (inactive)
GI50 [26]: 1.89 µM (inactive)
GI50 [28]: 4.49 µM (inactive)
GI50 [29]: 5.73 µM (inactive)
GI50 [30]: 6.31 µM (inactive)
GI50 [31]: > 10 µM (inactive)
GI50 [33]: 6.03 µM (inactive)
GI50 [34]: 0.733 µM (active)
GI50 [35]: 2.87 µM (inactive)
GI50 [36]: > 10 µM (inactive)
GI50 [37]: 5.66 µM (inactive)
GI50 [39]: 5.96 µM (inactive)
GI50 [40]: 0.284 µM (active)
GI50 [41]: 3.01 µM (inactive)
GI50 [42]: 3.79 µM (inactive)
GI50 [43]: 7.05 µM (inactive)
GI50 [44]: 3.52 µM (inactive)
GI50 [45]: 5.07 µM (inactive)
GI50 [47]: 2.64 µM (inactive)
GI50 [48]: 2.47 µM (inactive)
GI50 [49]: 2.95 µM (inactive)
GI50 [51]: 5.27 µM (inactive)
GI50 [53]: 2.89 µM (inactive)
GI50 [59]: > 10 µM (inactive)
GI50 [55]: 2.4 µM (inactive)

CN(CCc1ccccn1)c1ccc2c(c1)Cc1ccccc1-2
GI50 [1]: 10.2 µM (inactive)
GI50 [2]: 26.1 µM (inactive)
GI50 [3]: 26.9 µM (inactive)
GI50 [4]: 16.3 µM (inactive)
GI50 [57]: 16.1 µM (inactive)
GI50 [6]: 33.8 µM (inactive)
GI50 [7]: 12.1 µM (inactive)
GI50 [8]: 5.35 µM (inactive)
GI50 [58]: 22.5 µM (inactive)
GI50 [9]: 3.09 µM (inactive)
GI50 [10]: 31.5 µM (inactive)
GI50 [11]: 14.1 µM (inactive)
GI50 [12]: 20.1 µM (inactive)
GI50 [13]: 61.4 µM (inactive)
GI50 [15]: 24.2 µM (inactive)
GI50 [16]: 48.4 µM (inactive)
GI50 [17]: 13.6 µM (inactive)
GI50 [18]: 14.4 µM (inactive)
GI50 [20]: 25.1 µM (inactive)
GI50 [21]: 4.54 µM (inactive)
GI50 [23]: 23.1 µM (inactive)
GI50 [24]: 38.2 µM (inactive)
GI50 [25]: 3.43 µM
GI50 [26]: 26.2 µM (inactive)
GI50 [27]: 11.1 µM (inactive)
GI50 [28]: 14.9 µM (inactive)
GI50 [29]: 6.5 µM (inactive)
GI50 [30]: 26.7 µM (inactive)
GI50 [31]: 25.8 µM (inactive)
GI50 [32]: 29.2 µM (inactive)
GI50 [33]: 31 µM (inactive)
GI50 [34]: 20.4 µM (inactive)
GI50 [35]: 8.69 µM (inactive)
GI50 [36]: 17.9 µM (inactive)
GI50 [37]: 10.2 µM (inactive)
GI50 [38]: 15.7 µM (inactive)
GI50 [39]: 28.4 µM (inactive)
GI50 [40]: 43.7 µM (inactive)
GI50 [41]: 5.42 µM (inactive)
GI50 [42]: 22.5 µM (inactive)
GI50 [43]: 19.3 µM (inactive)
GI50 [44]: 2.92 µM (inactive)
GI50 [45]: 12.6 µM (inactive)
GI50 [46]: 16.8 µM (inactive)
GI50 [47]: 5.75 µM (inactive)
GI50 [48]: 18.4 µM (inactive)
GI50 [49]: 9.31 µM (inactive)
GI50 [50]: 25.2 µM (inactive)
GI50 [51]: 16.6 µM (inactive)
GI50 [52]: 16.1 µM (inactive)
GI50 [53]: 10.6 µM (inactive)
GI50 [59]: 14.7 µM (inactive)
GI50 [54]: 29.5 µM (inactive)
GI50 [55]: 27.7 µM (inactive)
GI50 [56]: 9.68 µM (inactive)

CN(C)CCCNC(=O)c1cc(NC(=O)c2cc(NC(=O)[C@@H]3C[C@H]3C(=O)Nc3cc(C(=O)Nc4cc(C(=O)NCCCN(C)C)n(C)c4)n(C)c3)cn2C)cn1C
GI50 [1]: > 100 µM (inactive)
GI50 [3]: > 100 µM (inactive)
GI50 [4]: > 100 µM (inactive)
GI50 [57]: > 100 µM (inactive)
GI50 [6]: > 100 µM (inactive)
GI50 [7]: > 100 µM (inactive)
GI50 [8]: > 100 µM (inactive)
GI50 [58]: > 100 µM (inactive)
GI50 [9]: > 100 µM (inactive)
GI50 [11]: > 100 µM (inactive)
GI50 [12]: > 100 µM (inactive)
GI50 [13]: > 100 µM (inactive)
GI50 [14]: > 100 µM (inactive)
GI50 [16]: > 100 µM (inactive)
GI50 [17]: > 100 µM (inactive)
GI50 [18]: > 100 µM (inactive)
GI50 [19]: > 100 µM (inactive)
GI50 [22]: > 100 µM (inactive)
GI50 [23]: > 100 µM (inactive)
GI50 [26]: > 100 µM (inactive)
GI50 [27]: > 100 µM (inactive)
GI50 [28]: > 100 µM (inactive)
GI50 [29]: > 100 µM (inactive)
GI50 [30]: > 100 µM (inactive)
GI50 [31]: > 100 µM (inactive)
GI50 [32]: > 100 µM (inactive)
GI50 [33]: > 100 µM (inactive)
GI50 [34]: > 100 µM (inactive)
GI50 [35]: > 100 µM (inactive)
GI50 [36]: > 100 µM (inactive)
GI50 [37]: > 100 µM (inactive)
GI50 [38]: > 100 µM (inactive)
GI50 [39]: > 100 µM (inactive)
GI50 [40]: > 100 µM (inactive)
GI50 [41]: > 100 µM (inactive)
GI50 [42]: > 100 µM (inactive)
GI50 [43]: > 100 µM (inactive)
GI50 [44]: > 100 µM (inactive)
GI50 [45]: > 100 µM (inactive)
GI50 [47]: > 100 µM (inactive)
GI50 [48]: > 100 µM (inactive)
GI50 [49]: > 100 µM (inactive)
GI50 [51]: > 100 µM (inactive)
GI50 [52]: > 100 µM (inactive)
GI50 [59]: > 100 µM (inactive)
GI50 [54]: 20.9 µM (inactive)
GI50 [55]: > 100 µM (inactive)
GI50 [56]: > 100 µM (inactive)

Source: ChEMBL document CHEMBL1201862, “PubChem BioAssay data set” (2004)
